The values below come from ChEMBL document CHEMBL1126033, “C-terminal modifications of nonpeptide renin inhibitors: improved oral bioavailability via modification of physicochemical properties” (J Med Chem, 1992).

A word on the logD: it is the decadic logarithm of the distribution of all forms, ionised or not, between an organic phase and buffer at a given pH. The low end stands for a more hydrophilic compound, the high end for a more lipophilic compound. One may read the Cmax as the peak of the concentration-time curve. The term pIC50 denotes −log10 of the IC50, conventionally taken in molar units. A higher pIC50 goes with a low IC50. What is called bioavailability is the share of a dose that reaches the circulation, judged against a reference dose that is usually intravenous.

pIC50: −log10 of the molar value.

System in the first data set: not listed separately
The experiment in a line: Partition coefficient (logD7.4). The conditions noted are these: octanol/water, pH 7.4.
With `CCCC[C@H](N[C@@H](Cc1ccccc1)C(=O)N1CCC(OCOC)CC1)C(=O)N[C@@H](CC1CCCCC1)[C@@H](O)C[C@H](NC(=O)OCCN(C)C)C(C)C`, the logD is 4.6.

Molecule `CCCC[C@H](O[C@@H](Cc1ccccc1)C(=O)N1CCC(OCOC)CC1)C(=O)N[C@@H](CC1CCCCC1)[C@@H](O)C[C@H](C(=O)NCCN1CCOCC1)C(C)C` had a logD of more than 5.

The molecule `CCCCNC(=O)[C@@H](C[C@H](O)[C@H](CC1CCCCC1)NC(=O)[C@H](CCCC)N[C@@H](Cc1ccccc1)C(=O)N1CCC(OCOC)CC1)C(C)C` displayed a logD of more than 4.5.

System in another data set: not listed separately
The data set can be described thus: Average peak plasma drug concentration after id dose of 10 mg/kg in ferrets(Plasma samples collected from portal blood). The following applies: ferret, plasma (from portal blood).
On to `CCCC[C@H](N[C@@H](Cc1ccccc1)C(=O)N1CCC(OCOC)CC1)C(=O)N[C@@H](CC1CCCCC1)[C@@H](O)C[C@H](NC(=O)OCCN(C)C)C(C)C`, for which the peak level (Cmax) was 5250 ng/mL.

For `CCCC[C@H](O[C@@H](Cc1ccccc1)C(=O)N1CCC(OCOC)CC1)C(=O)N[C@@H](CC1CCCCC1)[C@@H](O)C[C@H](C(=O)NCCN1CCOCC1)C(C)C`, the highest level (Cmax) was 4350 ng/mL.

The molecule `CCCCNC(=O)[C@@H](C[C@H](O)[C@H](CC1CCCCC1)NC(=O)[C@H](CCCC)N[C@@H](Cc1ccccc1)C(=O)N1CCC(OCOC)CC1)C(C)C` registered a Cmax of 3220 ng/mL.

Another data set addresses T1, Renin (Homo sapiens, UniProt P00797).
T1 sequence (P00797 whole entry): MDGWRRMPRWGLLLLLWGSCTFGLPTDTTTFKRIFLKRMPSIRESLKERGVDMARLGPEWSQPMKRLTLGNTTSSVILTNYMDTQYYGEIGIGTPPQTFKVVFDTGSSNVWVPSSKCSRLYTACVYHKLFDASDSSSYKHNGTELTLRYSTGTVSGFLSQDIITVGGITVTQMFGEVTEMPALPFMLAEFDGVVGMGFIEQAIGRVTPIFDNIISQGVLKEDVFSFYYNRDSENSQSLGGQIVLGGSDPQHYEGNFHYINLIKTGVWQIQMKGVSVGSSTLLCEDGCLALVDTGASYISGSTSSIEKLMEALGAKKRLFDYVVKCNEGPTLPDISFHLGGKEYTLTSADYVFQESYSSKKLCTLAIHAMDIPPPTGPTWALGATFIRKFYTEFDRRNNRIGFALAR
The format is cell-free, Plasma.
Details: not given
As to `CCCC[C@H](N[C@@H](Cc1ccccc1)C(=O)N1CCC(OCOC)CC1)C(=O)N[C@@H](CC1CCCCC1)[C@@H](O)C[C@H](NC(=O)OCCN(C)C)C(C)C`, the pIC50 was 7.92.

The molecule `CCCC[C@H](O[C@@H](Cc1ccccc1)C(=O)N1CCC(OCOC)CC1)C(=O)N[C@@H](CC1CCCCC1)[C@@H](O)C[C@H](C(=O)NCCN1CCOCC1)C(C)C` had a pIC50 of 8.43.

System in the next data set: not listed separately
The data set can be described thus: Average peak plasma drug concentration after iv dose of 0.3 mg/kg in ferrets. The following applies: ferret, plasma.
As to `CCCC[C@H](N[C@@H](Cc1ccccc1)C(=O)N1CCC(OCOC)CC1)C(=O)N[C@@H](CC1CCCCC1)[C@@H](O)C[C@H](NC(=O)OCCN(C)C)C(C)C`, the peak level (Cmax) was 930 ng/mL.

With `CCCC[C@H](O[C@@H](Cc1ccccc1)C(=O)N1CCC(OCOC)CC1)C(=O)N[C@@H](CC1CCCCC1)[C@@H](O)C[C@H](C(=O)NCCN1CCOCC1)C(C)C`, the highest level (Cmax) was 1320 ng/mL.

In the case of `CCCCNC(=O)[C@@H](C[C@H](O)[C@H](CC1CCCCC1)NC(=O)[C@H](CCCC)N[C@@H](Cc1ccccc1)C(=O)N1CCC(OCOC)CC1)C(C)C`, the Cmax came out at 2230 ng/mL.

Another data set has as its target T1, Renin. The data set can be described thus: In vitro activity against human renin (pH 6.0).
Details: not given
Take `CCCC[C@H](N[C@@H](Cc1ccccc1)C(=O)N1CCC(OCOC)CC1)C(=O)N[C@@H](CC1CCCCC1)[C@@H](O)C[C@H](NC(=O)OCCN(C)C)C(C)C`: the pIC50 is 8.82.

For `CCCC[C@H](O[C@@H](Cc1ccccc1)C(=O)N1CCC(OCOC)CC1)C(=O)N[C@@H](CC1CCCCC1)[C@@H](O)C[C@H](C(=O)NCCN1CCOCC1)C(C)C`, the pIC50 was 9.00.

Molecule `CCCCNC(=O)[C@@H](C[C@H](O)[C@H](CC1CCCCC1)NC(=O)[C@H](CCCC)N[C@@H](Cc1ccccc1)C(=O)N1CCC(OCOC)CC1)C(C)C` gave a pIC50 of 8.74.

System in a further data set: not listed separately
The experiment in a line: Partition coefficient (logD6.5). The following applies: octanol/water, pH 6.5.
`CCCC[C@H](N[C@@H](Cc1ccccc1)C(=O)N1CCC(OCOC)CC1)C(=O)N[C@@H](CC1CCCCC1)[C@@H](O)C[C@H](NC(=O)OCCN(C)C)C(C)C` showed a logD of 3.8.

`CCCC[C@H](O[C@@H](Cc1ccccc1)C(=O)N1CCC(OCOC)CC1)C(=O)N[C@@H](CC1CCCCC1)[C@@H](O)C[C@H](C(=O)NCCN1CCOCC1)C(C)C` came in with a log distribution coefficient (logD) of more than 5.

Molecule `CCCCNC(=O)[C@@H](C[C@H](O)[C@H](CC1CCCCC1)NC(=O)[C@H](CCCC)N[C@@H](Cc1ccccc1)C(=O)N1CCC(OCOC)CC1)C(C)C` displayed a logD of more than 4.5.

Another data set has as its system Mustela putorius furo. The experiment in a line: Average area under curve value dosed at 10 mg/kg, id in ferrets. The following applies: ferret, in vivo, other.
`CCCC[C@H](N[C@@H](Cc1ccccc1)C(=O)N1CCC(OCOC)CC1)C(=O)N[C@@H](CC1CCCCC1)[C@@H](O)C[C@H](NC(=O)OCCN(C)C)C(C)C` returned an Average AUC of 5050 ng·h/mL.

Molecule `CCCC[C@H](O[C@@H](Cc1ccccc1)C(=O)N1CCC(OCOC)CC1)C(=O)N[C@@H](CC1CCCCC1)[C@@H](O)C[C@H](C(=O)NCCN1CCOCC1)C(C)C` returned an Average AUC of 7080 ng·h/mL.

For `CCCCNC(=O)[C@@H](C[C@H](O)[C@H](CC1CCCCC1)NC(=O)[C@H](CCCC)N[C@@H](Cc1ccccc1)C(=O)N1CCC(OCOC)CC1)C(C)C`, the Average AUC is 3530 ng·h/mL.

System in another data set: not listed separately
The data set can be described thus: Bioavailability in ferret. The conditions noted are these: in vivo.
For `CCCC[C@H](N[C@@H](Cc1ccccc1)C(=O)N1CCC(OCOC)CC1)C(=O)N[C@@H](CC1CCCCC1)[C@@H](O)C[C@H](NC(=O)OCCN(C)C)C(C)C`, the bioavailability came out at 62%.

Turning to `CCCC[C@H](O[C@@H](Cc1ccccc1)C(=O)N1CCC(OCOC)CC1)C(=O)N[C@@H](CC1CCCCC1)[C@@H](O)C[C@H](C(=O)NCCN1CCOCC1)C(C)C`, the bioavailability amounted to 45%.

Take `CCCCNC(=O)[C@@H](C[C@H](O)[C@H](CC1CCCCC1)NC(=O)[C@H](CCCC)N[C@@H](Cc1ccccc1)C(=O)N1CCC(OCOC)CC1)C(C)C`: the bioavailability worked out at 16%.

System in a further data set: not listed separately
The experiment in a line: Average peak plasma drug concentration after id dose of 10 mg/kg in ferrets(Plasma samples collected from arterial blood). The following applies: ferret, plasma (from arterial blood).
`CCCC[C@H](N[C@@H](Cc1ccccc1)C(=O)N1CCC(OCOC)CC1)C(=O)N[C@@H](CC1CCCCC1)[C@@H](O)C[C@H](NC(=O)OCCN(C)C)C(C)C` registered a Cmax of 2070 ng/mL.

With `CCCC[C@H](O[C@@H](Cc1ccccc1)C(=O)N1CCC(OCOC)CC1)C(=O)N[C@@H](CC1CCCCC1)[C@@H](O)C[C@H](C(=O)NCCN1CCOCC1)C(C)C`, the concentration peaked (Cmax) at 2770 ng/mL.

Turning to `CCCCNC(=O)[C@@H](C[C@H](O)[C@H](CC1CCCCC1)NC(=O)[C@H](CCCC)N[C@@H](Cc1ccccc1)C(=O)N1CCC(OCOC)CC1)C(C)C`, the Cmax was 1540 ng/mL.

A further data set deals with Mustela putorius furo. The data set can be described thus: Average area under curve value dosed at 0.3 mg/kg, iv in ferrets. The following applies: ferret, in vivo.
`CCCC[C@H](N[C@@H](Cc1ccccc1)C(=O)N1CCC(OCOC)CC1)C(=O)N[C@@H](CC1CCCCC1)[C@@H](O)C[C@H](NC(=O)OCCN(C)C)C(C)C` returned an Average AUC of 245 ng·h/mL.

`CCCC[C@H](O[C@@H](Cc1ccccc1)C(=O)N1CCC(OCOC)CC1)C(=O)N[C@@H](CC1CCCCC1)[C@@H](O)C[C@H](C(=O)NCCN1CCOCC1)C(C)C` yielded an Average AUC of 472 ng·h/mL.

`CCCCNC(=O)[C@@H](C[C@H](O)[C@H](CC1CCCCC1)NC(=O)[C@H](CCCC)N[C@@H](Cc1ccccc1)C(=O)N1CCC(OCOC)CC1)C(C)C` displayed an Average AUC of 673 ng·h/mL.
